Measured values from patent US9073853B2, “Cycloalkane carboxylic acid derivatives as CXCR3 receptor antagonists” (Sanofi, priority 2011, dated 2015).

molecular target: human CXCR3-A receptor (Homo sapiens (Human), UniProt P49682); test: 125I-CXCL10 competition radioligand binding assay; conditions: displacement of 125I-CXCL10 from membranes of CHO cells expressing human recombinant CXCR3-A
Experimental: IC50 values were determined for the test compounds and used to explore the structure-activity relationships (SAR). […] This cell line was registered in Sanofi-Aventis cell line bank. […] Cell suspension was diluted with PBS and cells were collected with centrifugation at 230 g for 10 minutes at 10° C. with a Juan centrifuge. […] The supernatant was carefully collected and centrifuged at 100,000×g for 60 min at 4° with a Beckman Avanti J30 centrifuge. […] Protein concentration was determined with Bio-Rad protein assay (Cat No 500-0006). Membrane aliquots were stored at -80° C. […] The composition of the binding assay buffer was determined in a course of detailed optimization procedure. […] Binding reaction was initiated by adding of membranes (10-20 μg proteins, approximately 5×10^5 cell equivalents) to the reaction mixture. After 60 minutes of incubation at 25° C. the reaction was terminated by rapid filtration over GF/B glass fiber filters that were pre-soaked with 0.5% polyethyleneimine (Fluka Analytical, P3143) for 1 hour, using a Skatron cell harvester device. Filters then were washed with 8 ml of ice-cold wash buffer (modified binding buffer in which BSA was omitted and the concentration of NaCl was adjusted to 500 mM concentration). The radioactivity retained on the filters was measured by a Wizard 1470 Automatic Gamma counter. Test compounds were dissolved prior to the binding assay at a concentration of 10 mM in DMSO. Stock solutions were stored at -20° C. for not longer than 3 months. […] Before adding these solutions of test compound to the binding reaction mixture, an intermediate dilution procedure was applied, in which 30 μL of each solution sample was transferred into a dilution tube containing 970 μL of binding assay buffer. […] The IC50 values and Hill slopes for competition binding data were obtained using nonlinear four-parametric curve fitting method.

human CXCR3-A receptor, sequence (P49682 whole entry): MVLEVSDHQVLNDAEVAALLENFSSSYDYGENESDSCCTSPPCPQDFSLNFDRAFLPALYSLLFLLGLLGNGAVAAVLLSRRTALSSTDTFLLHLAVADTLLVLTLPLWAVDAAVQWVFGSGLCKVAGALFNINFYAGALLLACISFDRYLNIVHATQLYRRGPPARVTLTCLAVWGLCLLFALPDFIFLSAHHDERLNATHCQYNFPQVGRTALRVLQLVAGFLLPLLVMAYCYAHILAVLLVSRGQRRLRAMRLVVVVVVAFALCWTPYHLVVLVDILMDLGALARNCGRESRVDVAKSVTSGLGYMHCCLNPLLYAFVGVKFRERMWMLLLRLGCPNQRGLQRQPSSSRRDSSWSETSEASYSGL

Row | Compound | IC50
1 | O=C1CCC(=O)N1CCOc1ccc(CN(C[C@H]2CC[C@H](C(=O)O)CC2)C2CCc3cc(Cl)ccc32)cc1Cl (stereo partly drawn) [Example 21, trans-4-{[{3-Chloro-4-[2-(2,5-dioxo-pyrrolidin-1-yl)-ethoxy]-benzyl}-(5-chloro-indan-1-yl)-amino]-methyl}-cyclohexanecarboxylic acid] | 633 nM
2 | C[C@@H](c1ccc(Cl)cc1)N(Cc1ccc(OCCN2C(=O)CCC2=O)c(Cl)c1)C[C@H]1CC[C@H](C(=O)O)CC1 [Example 32, trans-4-({{3-Chloro-4-[2-(2,5-dioxo-pyrrolidin-1-yl)-ethoxy]-benzyl}-[(S)-1-(4-chloro-phenyl)-ethyl]-amino}-methyl)-cyclohexanecarboxylic acid] | 123 nM
3 | Cc1cc(CN(C[C@H]2CC[C@H](C(=O)O)CC2)[C@@H](C)c2ccc(Cl)cc2)ccc1CCCN1C(=O)CCC1=O [Example 54, trans-4-[([(S)-1-(4-Chloro-phenyl)-ethyl]-{4-[3-(2,5-dioxo-pyrrolidin-1-yl)-propyl]-3-methyl-benzyl}-amino)-methyl]-cyclohexanecarboxylic acid] | 482 nM
4 | Cc1cc(CN(C(C)c2ccc3c(c2)CCO3)[C@H]2C[C@@H](C(=O)O)C2)ccc1OCCn1c(=O)ccn(C)c1=O (stereo partly drawn) [Example 134, cis-3-([1-(2,3-Dihydro-benzofuran-5-yl)-ethyl]-{3-methyl-4-[2-(3-methyl-2,6-dioxo-3,6-dihydro-2H-pyrimidin-1-yl)-ethoxy]-benzyl}-amino)-cyclobutanecarboxylic acid] | 240 nM
5 | Cc1cc(CN(C(C)c2ccc(Cl)c(F)c2)[C@H]2C[C@@H](C(=O)O)C2)ccc1OCCN1C(=O)CCC1=O (stereo partly drawn) [Example 125, cis-3-([1-(4-Chloro-3-fluoro-phenyl)-ethyl]-{4-[2-(2,5-dioxo-pyrrolidin-1-yl)-ethoxy]-3-methyl-benzyl}-amino)-cyclobutanecarboxylic acid] | 465 nM
6 | C[C@@H](c1ccc(Cl)cc1)N(Cc1ccc(OCCN2C(=O)CN(C)C2=O)c(Cl)c1)C[C@H]1CC[C@H](C(=O)O)CC1 [Example 23, trans-4-({{3-Chloro-4-[2-(3-methyl-2,5-dioxo-imidazolidin-1-yl)-ethoxy]-benzyl}-[(S)-1-(4-chloro-phenyl)-ethyl]-amino}-methyl)-cyclohexanecarboxylic acid] | 116 nM
7 | COc1cc(CN(C[C@H]2CC[C@H](C(=O)O)C2)[C@@H](C)c2ccc(Cl)cc2)ccc1OCCN1C(=O)CCC1=O [Example 100, (1S,3S)-3-[([(S)-1-(4-Chloro-phenyl)-ethyl]-{4-[2-(2,5-dioxo-pyrrolidin-1-yl)-ethoxy]-3-methoxy-benzyl}-amino)-methyl]-cyclopentanecarboxylic acid] | 108 nM
8 | CCOC(=O)[C@H]1C[C@H]1CN(Cc1ccc(OCCN2C(=O)CCC2=O)c(OC)c1)C(C)c1ccc2c(c1)CCO2 (stereo partly drawn) [Example 113, (1S,2R)-2-[([1-(2,3-Dihydro-benzofuran-5-yl)-ethyl]-{4-[2-(2,5-dioxo-pyrrolidin-1-yl)-ethoxy]-3-methoxy-benzyl}-amino)-methyl]-cyclopropanecarboxylic acid ethyl ester] | 82 nM
9 | COc1cc(CN(C[C@H]2CC[C@H](C(=O)O)C2)[C@H](C)c2ccc3c(c2)CCO3)ccc1OCCN1C(=O)CCC1=O [Example 109, (1S,3S)-3-[([(R)-1-(2,3-Dihydro-benzofuran-5-yl)-ethyl]-{4-[2-(2,5-dioxo-pyrrolidin-1-yl)-ethoxy]-3-methoxy-benzyl}-amino)-methyl]-cyclopentanecarboxylic acid] | 73 nM
10 | CCC(c1ccc2c(c1)CCO2)N(Cc1ccc(CCCN2C(=O)CCC2=O)c(OC)c1)C[C@H]1CC[C@H](C(=O)O)CC1 (stereo partly drawn) [Example 66, trans-4-[([1-(2,3-Dihydro-benzofuran-5-yl)-propyl]-{4-[3-(2,5-dioxo-pyrrolidin-1-yl)-propyl]-3-methoxy-benzyl}-amino)-methyl]-cyclohexanecarboxylic acid] | 85 nM
11 | COc1cc(CN(C[C@H]2CC[C@H](C(=O)O)CC2)C2CCc3cc(Cl)ccc32)ccc1CCCN1C(=O)CCC1=O (stereo partly drawn) [Example 44, trans-4-[((5-Chloro-indan-1-yl)-{4-[3-(2,5-dioxo-pyrrolidin-1-yl)-propyl]-3-methoxy-benzyl}-amino)-methyl]-cyclohexanecarboxylic acid] | 410 nM
12 | CC(c1ccc2c(c1)CCO2)N(Cc1ccc(CCCN2C(=O)CCC2=O)c(Cl)c1)C[C@H]1CC[C@H](C(=O)O)CC1 (stereo partly drawn) [Example 47, trans-4-({{3-Chloro-4-[3-(2,5-dioxo-pyrrolidin-1-yl)-propyl]-benzyl}-[1-(2,3-dihydro-benzofuran-5-yl)-ethyl]-amino}-methyl)-cyclohexanecarboxylic acid] | 800 nM
13 | CC(c1ccc2c(c1)CCO2)N(Cc1ccc(OCCN2C(=O)CN(C)C2=O)c(Cl)c1)C[C@H]1CC[C@H](C(=O)O)CC1 (stereo partly drawn) [Example 22, trans-4-({{3-Chloro-4-[2-(3-methyl-2,5-dioxo-imidazolidin-1-yl)-ethoxy]-benzyl}-[1-(2,3-dihydro-benzofuran-5-yl)-ethyl]-amino}-methyl)-cyclohexanecarboxylic acid] | 112 nM
14 | CCC(c1ccc(Cl)cc1)N(Cc1ccc(OCCN2C(=O)CCC2=O)c(C)c1)C[C@@H]1[C@@H](C(=O)O)C1(C)C (stereo partly drawn) [Example 118, (1R,3R)-3-[([1-(4-Chloro-phenyl)-propyl]-{4-[2-(2,5-dioxo-pyrrolidin-1-yl)-ethoxy]-3-methyl-benzyl}-amino)-methyl]-2,2-dimethyl-cyclopropanecarboxylic acid] | 190 nM

Other lines, results leading:

Row | IC50 | Compound
15 | 5130 nM | COc1cc(CN(C[C@H]2CC[C@@H](C(=O)O)C2)[C@@H](C)c2ccc3c(c2)CCO3)ccc1OCCN1C(=O)CCC1=O [Example 107, (1R,3S)-3-[([(S)-1-(2,3-Dihydro-benzofuran-5-yl)-ethyl]-{4-[2-(2,5-dioxo-pyrrolidin-1-yl)-ethoxy]-3-methoxy-benzyl}-amino)-methyl]-cyclopentanecarboxylic acid]
16 | 23 nM | COc1cc(CN(C[C@H]2CC[C@H](C(=O)O)CC2)[C@H]2CCc3cc(Cl)ccc32)ccc1SCCN1C(=O)CCC1=O [Example 88, trans-4-[(((S)-5-Chloro-indan-1-yl)-{4-[2-(2,5-dioxo-pyrrolidin-1-yl)-ethylsulfanyl]-3-methoxy-benzyl}-amino)-methyl]-cyclohexanecarboxylic acid]
17 | 167 nM | COc1cc(CN(C[C@H]2CC[C@H](C(=O)O)CC2)C(C)c2ccc3c(c2)CCC3)ccc1OCCN1C(=O)CCC1=O (stereo partly drawn) [Example 144, trans-4-{[{4-[2-(2,5-Dioxo-pyrrolidin-1-yl)-ethoxy]-3-methoxy-benzyl}-(1-indan-5-yl-ethyl)-amino]-methyl}-cyclohexanecarboxylic acid]
18 | 120 nM | COc1cc(CN(C(C)c2ccc(Cl)c(F)c2)[C@H]2C[C@@H](C(=O)O)C2)ccc1OCCN1C(=O)CCC1=O (stereo partly drawn) [Example 142, cis-3-([1-(4-Chloro-3-fluoro-phenyl)-ethyl]-{4-[2-(2,5-dioxo-pyrrolidin-1-yl)-ethoxy]-3-methoxy-benzyl}-amino)-cyclobutanecarboxylic acid]
19 | 42 nM | Cc1cc(CN(C[C@H]2CC[C@H](C(=O)O)CC2)C(C)c2ccc3c(c2)CCO3)ccc1OCCN1C(=O)CSC1=O (stereo partly drawn) [Example 33, trans-4-[([1-(2,3-Dihydro-benzofuran-5-yl)-ethyl]-{4-[2-(2,4-dioxo-thiazolidin-3-yl)-ethoxy]-3-methyl-benzyl}-amino)-methyl]-cyclohexanecarboxylic acid]
20 | 3200 nM | COc1cc(CN(CC2(C(=O)O)CC2)C2CCc3cc(Cl)ccc32)ccc1OCCN1C(=O)CCC1=O (centres unmarked) [Example 119, 1-[((5-Chloro-indan-1-yl)-{4-[2-(2,5-dioxo-pyrrolidin-1-yl)-ethoxy]-3-methoxy-benzyl}-amino)-methyl]-cyclopropanecarboxylic acid]
21 | 52 nM | CCc1cc(CN(C[C@H]2CC[C@H](C(=O)O)CC2)C(C)c2ccc(Cl)c(F)c2)ccc1OCCN1C(=O)CCC1=O (stereo partly drawn) [Example 89, trans-4-[([1-(4-Chloro-3-fluoro-phenyl)-ethyl]-{4-[2-(2,5-dioxo-pyrrolidin-1-yl)-ethoxy]-3-ethyl-benzyl}-amino)-methyl]-cyclohexanecarboxylic acid]
22 | 170 nM | Cc1cc(CN([C@H]2C[C@@H](C(=O)O)C2)[C@H](C)c2ccc(Cl)cc2)ccc1OCCN1C(=O)CCC1=O [Example 132, cis-3-([(R)-1-(4-Chloro-phenyl)-ethyl]-{4-[2-(2,5-dioxo-pyrrolidin-1-yl)-ethoxy]-3-methyl-benzyl}-amino)-cyclobutanecarboxylic acid]
23 | 87 nM | COc1cc(CN(C[C@H]2CC[C@H](C(=O)O)CC2)C2CCc3cc(Cl)c(C)cc32)ccc1OCCN1C(=O)CCC1=O (stereo partly drawn) [Example 42, trans-4-[((5-Chloro-6-methyl-indan-1-yl)-{4-[2-(2,5-dioxo-pyrrolidin-1-yl)-ethoxy]-3-methoxy-benzyl}-amino)-methyl]-cyclohexanecarboxylic acid]
